The values that follow come from patent US7135462B2, “Hepatitis C virus inhibitors” (priority 2003, dated 2006).

Test [1] relates to HCV replicon in Huh7 cells. Kind of test: microbe, parasite or virus in culture. The test is classed as cell-based, strain 1b. Conditions: Hepatitis C virus, Huh-7, 96 h; Huh7 cells expressing HCV replicon, 4 days; activity range class. The source says: Generation of HCV Replicon
This system enabled us to evaluate the effects of our HCV Protease compounds on HCV RNA replication. Briefly, using the HCV strain 1b sequence described in the Lohmann paper (Assession number: AJ238799), an HCV cDNA was generated encoding the 5′ internal ribosome entry site (IRES), the neomycin resistance gene, the EMCV (encephalomyocarditis viurs)-IRES and the HCV nonstructural proteins, NS3-NS5B, and 3′ non-translated region (NTR). In vitro transcripts of the cDNA were transfected into the human hepatoma cell line, Huh7. […] Resulting cell lines were characterized for positive and negative strand RNA production and protein production over time.
Huh7 cells, constitutively expressing the HCV replicon, were grown in Dulbecco's Modified Eagle Media (DMEM) containing 10% Fetal calf serum (FCS) and 1 mg/ml G418 (Gibco-BRL). Cells were seeded the night before (1.5×10^4 cells/well) in 96-well tissue-culture sterile plates. Compound and no compound controls were prepared in DMEM containing 4% FCS, 1:100 Penicillin/Streptomysin, 1:100 L-glutamine and 5% DMSO in the dilution plate (0.5% DMSO final concentration in the assay). Compound/DMSO mixes were added to the cells and incubated for 4 days at 37° C. After 4 days, plates were rinsed thoroughly with Phosphate-Buffered Saline (PBS) (3 times 150 μl). The cells were lysed with 25 μl of a lysis assay reagent containing the FRET peptide (RET S1, as described for the in vitro enzyme assay). The lysis assay reagent was made from 5× cell Luciferase cell culture lysis reagent (Promega #E153A) diluted to 1× with distilled water, NaCl added to 150 mM final, the FRET peptide diluted to 10 μM final from a 2 mM stock in 100% DMSO. The plate was then placed into the Cytofluor 4000 instrument which had been set to 340 nm excitation/490 nm emission, automatic mode for 21 cycles and the plate read in a kinetic mode. EC50 determinations were carried out as described for the IC50 determinations. […]
The percentage inhibition was calculated using the formula below: […]
The values were graphed and analyzed using XLFit to obtain the EC50 value.
(In antiviral work, replicon cells carry a viral genome segment that copies itself.)

Test [2] has as its target T1, HCV NS3/4A protease complex (BMS strain) (UniProt P27958, C1454S/C1711G, species not given).
T1 construct: for H77 and J4L6S; fused on or other part: Three-lysine solubilising tail at the C-terminus of NS4A
Kind of test: Recombinant HCV NS3/4A protease complex FRET peptide assay. The test is classed as biochemical, Hepatitis C virus (HCV), genotype 1a. Conditions: NS3/4A BMS strain, activity range class. An excerpt:
Recombinant HCV NS3/4A Protease Complex FRET Peptide Assay
Serum from an HCV-infected patient was obtained from Dr. T. Wright, San Francisco Hospital. An engineered full-length cDNA (compliment deoxyribonucleic acid) template of the HCV genome (BMS strain) was constructed from DNA fragments obtained by reverse transcription-PCR (RT-PCR) of serum RNA (ribonucleic acid) and using primers selected on the basis of homology between other genotype 1a strains.
The H77 and J4L6S strains were used for production of recombinant NS3/4A protease complexes. […] Briefly, a three-lysine solubilizing tail was added at the 3′-end of the NS4A coding region. […] Briefly, the NS3/4A protease complex expression was induced with 0.5 millimolar (mM) Isopropyl β-D-1-thiogalactopyranoside (IPTG) for 22 hours (h) at 20° C. […] The cells were resuspended in lysis buffer (10 mL/g) consisting of 25 mM N-(2-Hydroxyethyl)piperazine-N′-(2-Ethane Sulfonic acid) (HEPES), pH 7.5, 20% glycerol, 500 mM Sodium Chloride (NaCl), 0.5% Triton X-100, 1 microgram/milliliter (“μg/mL”) lysozyme, 5 mM Magnesium Chloride (MgCl2), 1 μg/ml DnaseI, 5 mM β-Mercaptoethanol (βME), Protease inhibitor—Ethylenediamine Tetraacetic acid (EDTA) free (Roche), homogenized and incubated for 20 minutes (min) at 4° C. The homogenate was sonicated and clarified by ultra-centrifugation at 235000 g for 1 h at 4° C. Imidazole was added to the supernatant to a final concentration of 15 mM and the pH adjusted to 8.0. The crude protein extract was loaded on a Nickel—Nitrilotriacetic acid (Ni-NTA) column pre-equilibrated with buffer B (25 mM HEPES, pH 8.0, 20% glycerol, 500 mM NaCl, 0.5% Triton X-100, 15 mM imidazole, 5 mM βME). The sample was loaded at a flow rate of 1 mL/min. The column was washed with 15 column volumes of buffer C (same as buffer B except with 0.2% Triton X-100). The protein was eluted with 5 column volumes of buffer D (same as buffer C except with 200 mM Imidazole).
NS3/4A protease complex-containing fractions were pooled and loaded on a desalting column Superdex-S200 pre-equilibrated with buffer D (25 mM HEPES, pH 7.5, 20% glycerol, 300 mM NaCl, 0.2% Triton X-100, 10 mM βME). Sample was loaded at a flow rate of 1 mL/min. NS3/4A protease complex-containing fractions were pooled and concentrated to approximately 0.5 mg/ml.
The enzyme was stored at −80° C., thawed on ice and diluted prior to use in assay buffer. […] The sequence of this peptide is loosely based on the NS4A/NS4B natural cleavage site for the HCV NS3 protease except there is an ester linkage rather than an amide bond at the cleavage site. The peptide substrate was incubated with one of the three recombinant NS3/4A protease complexes, in the absence or presence of a compound of the present invention, and the formation of fluorescent reaction product was followed in real time using a Cytofluor Series 4000.
The reagents were as follow: HEPES and Glycerol (Ultrapure) were obtained from GIBCO-BRL. Dimethyl Sulfoxide (DMSO) was obtained from Sigma. β-Mercaptoethanol was obtained from Bio Rad.
Assay buffer: 50 mM HEPES, pH 7.5; 0.15 M NaCl; 0.1% Triton; 15% Glycerol; 10 mM βME. Substrate: 2 μM final concentration (from a 2 mM stock solution in DMSO stored at −20° C.). HCV NS3/4A protease type 1a (1b), 2–3 nM final concentration (from a 5 μM stock solution in 25 mM HEPES, pH 7.5, 20% glycerol, 300 mM NaCl, 0.2% Triton-X100, 10 mM βME).
The assay was performed in a 96-well polystyrene black plate from Falcon.

Structures are written as SMILES. Like-named read-outs stand apart in the source and are kept apart here.

Broadly, the EC50 is the concentration that produces a half-maximal response. A lower EC50 goes with greater potency. The term IC50 denotes the concentration that inhibits the measured activity by half. The molecule `C=C[C@@H]1C[C@]1(NC(=O)[C@@H]1C[C@@H](Oc2nc(-c3ccccc3)nc3ccccc23)CN1C(=O)[C@@H](NC(=O)c1cnccn1)C(C)(C)C)C(=O)NS(=O)(=O)C1(CC2CC2)CC1` [Cmpd 605] registered an EC50 in test [1] of 1000 to 10000 nM. Moreover, in test [2] (read-out: IC50), the IC50 was in the range of 100 to 1000 nM.
For `C=C[C@@H]1C[C@]1(NC(=O)[C@@H]1C[C@@H](Oc2ncc(Cl)c3cc(OC)ccc23)CN1C(=O)[C@@H](NC(=O)OC(C)(C)C)C(C)(C)C)C(=O)NS(=O)(=O)C1(CC)CC1` [Cpd 107], in test [1], the EC50 is less than 100 nM. Moreover, the IC50 in test [2] (read-out: IC50) was less than 100 nM.
Take `C=C[C@@H]1C[C@]1(NC(=O)[C@@H]1C[C@@H](Oc2cc(-c3ccccc3)nc3c(C)noc23)CN1C(=O)[C@@H](NC(=O)OC(C)(C)C)C(C)(C)C)C(=O)NS(=O)(=O)C1(CCC)CC1` [Cmpd 501]: the EC50 in test [1] lay within 100 to 1000 nM. In test [2], the half-maximal inhibitory concentration (IC50) is less than 100 nM.
For the molecule `C=C[C@@H]1C[C@]1(NC(=O)[C@@H]1C[C@@H](Oc2nccc3c(Cl)cccc23)CN1C(=O)[C@@H](NC(=O)OC(C)(C)C)C(C)(C)C)C(=O)NS(=O)(=O)C1(CC)CC1` [Cpd 101], the EC50 in test [1] was less than 100 nM. In test [2] (read-out: IC50), the IC50 is less than 100 nM.
`C=C[C@@H]1C[C@]1(NC(=O)[C@@H]1C[C@@H](Oc2nccc3cc(OC)ccc23)CN1C(=O)[C@@H](NC(=O)OC(C)(C)C)C(C)(C)C)C(=O)NS(=O)(=O)C1(Cl)CC1` [Cmpd 304, {1-[2-[1-(1-Chloro-cyclopropanesulfonylaminocarbonyl)-2-vinyl-cyclopropylcarbamoyl]-4-(6-methoxy-isoquinolin-1-yloxy)-pyrrolidine-1-carbonyl]-2,2-dimethyl-propyl}-carbamic acid tert-butyl ester] gave an EC50 in test [1] of less than 100 nM. Also, in test [2] (read-out: IC50), the IC50 is less than 100 nM.
The molecule `C=C[C@@H]1C[C@]1(NC(=O)[C@@H]1C[C@@H](Oc2nc(Cl)cc3c(OC)cccc23)CN1C(=O)[C@@H](NC(=O)OC(C)(C)C)C(C)(C)C)C(=O)NS(=O)(=O)C1(CC)CC1` [Cpd 113] returned an EC50 in test [1] of 100 to 1000 nM. The IC50 in test [2] was less than 100 nM.
As for `C=C[C@@H]1C[C@]1(NC(=O)[C@@H]1C[C@@H](Oc2nccc3cc(OC)ccc23)CN1C(=O)[C@@H](NC(=O)NC1CCCC1)C(C)(C)C)C(=O)NS(=O)(=O)C1(C)CC1` [Cmpd 218], the EC50 in test [1] is less than 100 nM. Further, the IC50 in test [2] (read-out: IC50) was less than 100 nM.
As for `C=C[C@@H]1C[C@]1(NC(=O)[C@@H]1C[C@@H](Oc2nccc3cc(OC)c(F)cc23)CN1C(=O)[C@@H](NC(=O)OC(C)(C)C)C(C)(C)C)C(=O)NS(=O)(=O)C1(CC)CC1` [Cpd 109], the EC50 in test [1] is less than 100 nM. In test [2] (read-out: IC50), the IC50 is less than 100 nM.
In test [1], `C=C[C@@H]1C[C@]1(NC(=O)[C@@H]1C[C@@H](Oc2nccc3cc(OC)ccc23)CN1C(=O)[C@@H](NC(=O)OC(C)(C)C)C(C)(C)C)C(=O)NS(=O)(=O)C1(Cc2ccccc2)CC1` [Cmpd 303, {1-[2-[1-(1-Benzyl-cyclopropanesulfonylaminocarbonyl)-2-vinyl-cyclopropylcarbamoyl]-4-(6-methoxy-isoquinolin-1-yloxy)-pyrrolidine-1-carbonyl]-2,2-dimethyl-propyl}-carbamic acid tert-butyl ester] returned an EC50 of 100 to 1000 nM. In test [2] (read-out: IC50), the IC50 lay in the range of 100 to 1000 nM.
`C=C[C@@H]1C[C@]1(NC(=O)[C@@H]1C[C@@H](Oc2nccc3cc(OC)ccc23)CN1C(=O)[C@@H](NC(=O)N1CCC1)C(C)(C)C)C(=O)NS(=O)(=O)C1(C)CC1` [Cmpd 220] displayed an EC50 in test [1] of 100 to 1000 nM. Also, the IC50 in test [2] (read-out: IC50) is less than 100 nM.
In the case of `C=C[C@@H]1C[C@]1(NC(=O)[C@@H]1C[C@@H](Oc2nccc3c(OC)cccc23)CN1C(=O)[C@@H](NC(=O)OC(C)(C)C)C(C)(C)C)C(=O)NS(=O)(=O)C1(CC)CC1` [Cpd 100], in test [1], the EC50 was less than 100 nM. Moreover, the IC50 in test [2] is less than 100 nM.
In turn, `C=C[C@@H]1C[C@]1(NC(=O)[C@@H]1C[C@@H](Oc2nccc3c(OC)c(Cl)ccc23)CN1C(=O)[C@@H](NC(=O)OC(C)(C)C)C(C)(C)C)C(=O)NS(=O)(=O)C1(CC)CC1` [Cpd 106] registered an EC50 in test [1] of less than 100 nM. Also, the IC50 in test [2] (read-out: IC50) is less than 100 nM.
Turning to `C=C[C@@H]1C[C@]1(NC(=O)[C@@H]1C[C@@H](Oc2nccc3ccccc23)CN1C(=O)[C@@H](NC(=O)OC(C)(C)C)C(C)(C)C)C(=O)NS(=O)(=O)C1(CC2CC2)CC1` [Cmpd 400], the EC50 in test [1] lay within 100 to 1000 nM. Further, the IC50 in test [2] is less than 100 nM.
Turning to `C=C[C@@H]1C[C@]1(NC(=O)[C@@H]1C[C@@H](Oc2nccc3ccccc23)CN1C(=O)[C@@H](NC(=O)OCC(C)(C)C)C(C)(C)C)C(=O)NS(=O)(=O)C1(Cc2ccccc2)CC1` [Cmpd 205], the EC50 in test [1] was 100 to 1000 nM. Further, the IC50 in test [2] (read-out: IC50) lay in the range of 100 to 1000 nM.
Turning to `C=C[C@@H]1C[C@]1(NC(=O)[C@@H]1C[C@@H](Oc2ncc(Cl)c3ccccc23)CN1C(=O)[C@@H](NC(=O)OC(C)(C)C)C(C)(C)C)C(=O)NS(=O)(=O)C1(CC)CC1` [Cpd 102], in test [1], the EC50 is 100 to 1000 nM. In test [2], the IC50 was less than 100 nM.
In turn, `C=C[C@@H]1C[C@]1(NC(=O)[C@@H]1C[C@@H](Oc2nccc3cc(OC)ccc23)CN1C(=O)[C@@H](NC(=O)OC(C)(C)C)C(C)(C)C)C(=O)NS(=O)(=O)C1(CCC)CC1` [Cmpd 302, (1-{4-(6-Methoxy-isoquinolin-1-yloxy)-2-[1-(1-propyl-cyclopropanesulfonylaminocarbonyl)-2-vinyl-cyclopropylcarbamoyl]-pyrrolidine-1-carbonyl}-2,2-dimethyl-propyl)-carbamic acid tert-butyl ester] had an EC50 in test [1] of less than 100 nM. In test [2] (read-out: IC50), the IC50 was less than 100 nM.
In test [1], `C=C[C@@H]1C[C@]1(NC(=O)[C@@H]1C[C@@H](Oc2nccc3cc(OC)ccc23)CN1C(=O)[C@@H](NC(=O)NC(C)(C)C)C(C)(C)C)C(=O)NS(=O)(=O)C1(C)CC1` [Cmpd 217] came in with an EC50 of less than 100 nM. Also, the IC50 in test [2] was less than 100 nM.
As for `CCCC1(S(=O)(=O)NC(=O)[C@@]2(NC(=O)[C@@H]3C[C@@H](Oc4cc(-c5ccccc5)nc5c(C)noc45)CN3C(=O)[C@@H](NC(=O)OC(C)(C)C)C(C)(C)C)C[C@H]2CC)CC1` [Cmpd 502], the EC50 in test [1] was in the range of 100 to 1000 nM. In addition, the IC50 in test [2] was in the range of 100 to 1000 nM.
